Columns and labels:
Experiment in all cases: Bliss excess, mean over the matrix (fraction); higher = more synergy
[1] = test system: C3A (Hepatocellular Carcinoma)
In short: (§1)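 Cell lines grown in DMEM/F12 or RPMI with 10% FBS were plated in 1536-well plates and held 24 hours at 37°C, 5% CO2 before 72 hours of exposure to two-drug dose matrices, with DMSO typically at 0.2%. CellTiter-Glo 2.0 luminescence gave viability, which was converted to inhibition. Vehicle wells were set to 0 and blank wells to 1. Combination Emax is the second-highest inhibition in the matrix, and Bliss excess is the observed combination effect minus the expected EA + EB − EA·EB, where EA and EB are the single-agent effects.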

[2] = test system: CAL-78 (Chondrosarcoma)
In short: as §1

[3] = test system: DB (B-Cell Non-Hodgkin's Lymphoma)
In short: as §1

[4] = test system: DOV13 (Ovarian Carcinoma)
In short: as §1

[5] = test system: DSH1 (Bladder Carcinoma)
In short: as §1

[6] = test system: EM-2 (Chronic Myelogenous Leukemia)
In short: as §1

[7] = test system: ES7 (Ewing's Sarcoma)
In short: as §1

[8] = test system: HCC2157 (Breast Carcinoma)
In short: as §1

[9] = test system: JiyoyeP-2003 (Burkitt's Lymphoma)
In short: as §1

[10] = test system: KARPAS-620 (Plasma Cell Myeloma)
In short: as §1

[11] = test system: LS-513 (Colorectal Carcinoma)
In short: as §1

[12] = test system: LU-99A (Non-Small Cell Lung Carcinoma)
In short: as §1

[13] = test system: MDA-MB-157 (Breast Carcinoma)
In short: as §1

[14] = test system: NALM-6 (B-Lymphoblastic Leukemia)
In short: as §1

[15] = test system: NCI-H1299 (Non-Small Cell Lung Carcinoma)
In short: as §1

[16] = test system: NCI-H1793 (Lung Adenocarcinoma)
In short: as §1

[17] = test system: OCI-AML2 (Acute Myeloid Leukemia)
In short: as §1

[18] = test system: SK-N-FI (Neuroblastoma)
In short: as §1

[19] = test system: SUIT-2 (Pancreatic Carcinoma)
In short: as §1

[20] = test system: U-266 (Plasma Cell Myeloma)
In short: as §1

Row | SMILES | Bliss excess [1] | Bliss excess [2] | Bliss excess [3] | Bliss excess [4] | Bliss excess [5] | Bliss excess [6] | Bliss excess [7] | Bliss excess [8] | Bliss excess [9] | Bliss excess [10] | Bliss excess [11] | Bliss excess [12] | Bliss excess [13] | Bliss excess [14] | Bliss excess [15] | Bliss excess [16] | Bliss excess [17] | Bliss excess [18] | Bliss excess [19] | Bliss excess [20]
1 | NC1(C(=O)N[C@@H](CCO)c2ccc(Cl)cc2)CCN(c2ncnc3[nH]ccc23)CC1 [Capivasertib] + C[C@@H]1COCCN1C2=NC(=NC(=C2)C3(CC3)[S@](=N)(=O)C)C4=C5C=CNC5=NC=C4 [AZD6738] (first compound max 10 µM, 7x7, partner max 10 µM) | -0.0096 | -0.0695 | -0.0769 | -0.062 | -0.064 | -0.0512 | -0.055 | -0.0175 | -0.0698 | -0.0384 | -0.0697 | -0.0059 | -0.0365 | -0.0686 | -0.0309 | 0.0097 | -0.0474 | -0.0529 | -0.0351 | -0.0793
2 | Cn1cnc2c(F)c(Nc3ccc(Br)cc3Cl)c(C(=O)NOCCO)cc21 [Selumetinib] + CC(C)n1c(=O)n(C)c2cnc3cc(F)c(-c4ccc(OCCCN5CCCCC5)nc4)cc3c21 [AZD1390] (first compound max 10 µM, 7x7, partner max 0.3 µM) | 0.0046 | -0.0665 | -0.0488 | -0.0576 | -0.0002 | 0.0304 | -0.0301 | 0.002 | -0.0153 | 0.0201 | -0.0395 | -0.0058 | -0.032 | -0.0248 | -0.012 | -0.0503 | -0.0079 | -0.0208 | -0.0294 | -0.0413
3 | COc1nnc2ccc(N3CCC(c4ccc(OCCN5CCN(C)C(=O)[C@H]5C)cc4)CC3)nn12 [AZD5153] + C[C@@H]1COCCN1C2=NC(=NC(=C2)C3(CC3)[S@](=N)(=O)C)C4=C5C=CNC5=NC=C4 [AZD6738] (first compound max 1 µM, 7x7, partner max 10 µM) | 0.0348 | 0.0093 | 0.0071 | -0.0623 | 0.0321 | 0.039 | -0.0245 | -0.0086 | -0.047 | -0.0429 | -0.0211 | -0.0213 | -0.0138 | -0.0624 | -0.0088 | 0.0127 | -0.0143 | 0.0549 | 0.0468 | -0.079
4 | Cc1cc2ncnn2cc1Nc1ncc2c(n1)n(C1CCOCC1)c(=O)n2C [AZD7648] + O=C(c1cc(Cc2n[nH]c(=O)c3ccccc23)ccc1F)N1CCN(C(=O)C2CC2)CC1 [Olaparib] (first compound max 10 µM, 7x7, partner max 10 µM) | -0.0505 | -0.0726 | -0.0564 | -0.0556 | 0.0328 | 0.0036 | -0.0569 | 0.0073 | 0.0339 | -0.0306 | -0.0387 | -0.0556 | -0.0251 | -0.027 | -0.03 | -0.0616 | -0.0289 | -0.0292 | 0.0151 | -0.0247
5 | COc1cccc(OCCCN)c1-c1cc(Nc2cnc(C#N)cn2)n[nH]1 [Prexasertib] + CN(C)CCCOc1ccc(-c2ccc3ncc4c(c3c2)n(C2CCOCC2)c(=O)n4C)cn1 [AZD0156] (first compound max 1 µM, 7x7, partner max 1 µM) | 0.0035 | -0.0165 | 0.0289 | -0.0227 | -0.0243 | -0.0279 | -0.0329 | -0.0366 | -0.0003 | 0.0277 | 0.0156 | 0.0172 | -0.0226 | 0.0002 | -0.0332 | -0.0227 | -0.0276 | -0.0168 | -0.0055 | -0.032
6 | CC1(C)CCC(CN2CCN(c3ccc(C(=O)NS(=O)(=O)c4ccc(NCC5CCOCC5)c([N+](=O)[O-])c4)c(Oc4cnc5[nH]ccc5c4)c3)CC2)=C(c2ccc(Cl)cc2)C1 [Venetoclax] + Cc1cc2ncnn2cc1Nc1ncc2c(n1)n(C1CCOCC1)c(=O)n2C [AZD7648] (first compound max 1 µM, 7x7, partner max 10 µM) | -0.0588 | 0.0236 | 0.0225 | 0.0659 | -0.027 | -0.0135 | -0.0735 | 0.0602 | -0.0604 | 0.0454 | -0.0294 | -0.0437 | -0.0154 | -0.0184 | -0.0352 | -0.042 | 0.0273 | 0.0047 | -0.0271 | 0.0148
7 | CN(C)CCCOc1ccc(-c2ccc3ncc4c(c3c2)n(C2CCOCC2)c(=O)n4C)cn1 [AZD0156] + C[C@@H]1COCCN1C2=NC(=NC(=C2)C3(CC3)[S@](=N)(=O)C)C4=C5C=CNC5=NC=C4 [AZD6738] (first compound max 1 µM, 7x7, partner max 10 µM) | 0.0318 | -0.0694 | -0.0151 | -0.0395 | 0.0773 | 0.0124 | 0.0225 | 0.0548 | 0.0501 | 0.0058 | 0.0068 | -0.0423 | -0.0103 | -0.0082 | 0.0234 | -0.0268 | -0.051 | 0.0055 | 0.0103 | -0.117
8 | COc1nnc2ccc(N3CCC(c4ccc(OCCN5CCN(C)C(=O)[C@H]5C)cc4)CC3)nn12 [AZD5153] + CCN(CCO)CCCOc1ccc2c(Nc3cc(CC(=O)Nc4cccc(F)c4)[nH]n3)ncnc2c1 [AZD2811] (first compound max 1 µM, 7x7, partner max 1 µM) | -0.0567 | -0.0564 | -0.0585 | -0.0908 | -0.0802 | -0.001 | -0.0372 | 0.0389 | 0.0351 | -0.0158 | -0.102 | -0.0244 | -0.0004 | -0.0683 | -0.0578 | -0.0381 | 0.0016 | -0.0579 | -0.0399 | -0.0763
9 | COc1nnc2ccc(N3CCC(c4ccc(OCCN5CCN(C)C(=O)[C@H]5C)cc4)CC3)nn12 [AZD5153] + C=CCn1c(=O)c2cnc(Nc3ccc(N4CCN(C)CC4)cc3)nc2n1-c1cccc(C(C)(C)O)n1 [AZD1775] (first compound max 1 µM, partner max 1 µM) | 0.0547 | -0.0766 | -0.0996 | -0.0561 | -0.132 | -0.0217 | -0.0364 | -0.0734 | -0.0401 | -0.0559 | -0.0603 | -0.02 | -0.0313 | -0.0559 | -0.0278 | -0.0548 | -0.0293 | -0.105 | 0.0152 | -0.0922
10 | C[C@@H](c1ccc2nccn2c1)n1nnc2ncc(-c3cnn(C)c3)nc21 [Savolitinib] + Cc1c2c(nn1C)CSCc1cc(n(C)n1)CSc1cc(c3ccccc3c1)OCCCc1c(C(=O)O)n(C)c3c-2c(Cl)ccc13 [AZD5991] (first compound max 1 µM, 7x7, partner max 1 µM) | -0.0229 | -0.117 | 0.0299 | -0.0518 | 0.0335 | -0.0401 | -0.017 | -0.0289 | -0.0034 | -0.049 | -0.0219 | -0.0346 | -0.0501 | -0.0141 | -0.0519 | -0.0351 | -0.0167 | -0.0077 | -0.0224 | -0.0655
11 | COc1cccc(OCCCN)c1-c1cc(Nc2cnc(C#N)cn2)n[nH]1 [Prexasertib] + C=CCn1c(=O)c2cnc(Nc3ccc(N4CCN(C)CC4)cc3)nc2n1-c1cccc(C(C)(C)O)n1 [AZD1775] (first compound max 1 µM, partner max 1 µM) | 0.0463 | -0.0422 | 0.071 | 0.0963 | 0.112 | 0.0475 | 0.0597 | 0.0668 | 0.0839 | 0.0927 | 0.0763 | 0.0196 | 0.0628 | 0.0507 | -0.0148 | -0.0045 | 0.0655 | 0.0466 | 0.036 | -0.0454
12 | CC1(C)CCC(CN2CCN(c3ccc(C(=O)NS(=O)(=O)c4ccc(NCC5CCOCC5)c([N+](=O)[O-])c4)c(Oc4cnc5[nH]ccc5c4)c3)CC2)=C(c2ccc(Cl)cc2)C1 [Venetoclax] + C=CCn1c(=O)c2cnc(Nc3ccc(N4CCN(C)CC4)cc3)nc2n1-c1cccc(C(C)(C)O)n1 [AZD1775] (first compound max 1 µM, partner max 1 µM) | -0.0511 | -0.0817 | 0.0119 | 0.131 | -0.0476 | -0.0094 | 0.119 | -0.0554 | -0.0263 | 0.0191 | -0.0581 | -0.0533 | 0.0679 | 0.119 | 0.0038 | -0.0007 | 0.0028 | -0.0076 | -0.0295 | 0.104
13 | CN(CCO)CC[C@H](CSc1ccccc1)Nc1ccc(S(=O)(=O)NC(=O)c2ccc(N3CCC([C@@H](O)c4ccccc4-c4ccc(Cl)cc4)CC3)cc2)cc1S(=O)(=O)C(F)(F)F [AZD4320] + CCN(CCO)CCCOc1ccc2c(Nc3cc(CC(=O)Nc4cccc(F)c4)[nH]n3)ncnc2c1 [AZD2811] (first compound max 1 µM, 7x7, partner max 1 µM) | -0.0487 | 0.117 | 0.0983 | 0.0816 | 0.0821 | -0.0327 | 0.0493 | 0.0907 | 0.057 | 0.0899 | -0.0584 | 0.0564 | 0.0101 | 0.0868 | -0.0237 | -0.0421 | 0.0189 | -0.022 | -0.0472 | 0.113
14 | CCN(CCO)CCCOc1ccc2c(Nc3cc(CC(=O)Nc4cccc(F)c4)[nH]n3)ncnc2c1 [AZD2811] + C[C@@H]1COCCN1C2=NC(=NC(=C2)C3(CC3)[S@](=N)(=O)C)C4=C5C=CNC5=NC=C4 [AZD6738] (first compound max 1 µM, 7x7, partner max 10 µM) | -0.0117 | -0.0799 | -0.0302 | -0.0619 | 0.02 | -0.0433 | -0.0482 | -0.0704 | 0.0773 | -0.0121 | -0.0524 | -0.0732 | 0.0031 | -0.0435 | -0.0808 | -0.0341 | -0.0145 | -0.0625 | -0.0307 | -0.0532

— the supplement of paper PMC11061612
